# Reference: paper PMC12006790 (Synthetic Biology, 2025)
# What was measured:
# HjCel7A = molecular target: T1, HjCel7A (Trichoderma reesei, UniProt P62694); test: p-nitrophenol release, […] nm; assay type: biochemical; settings: 2 mM substrate, PBS pH 7.4, 40 °C, 12 h
# T1 sequence (P62694 18-513): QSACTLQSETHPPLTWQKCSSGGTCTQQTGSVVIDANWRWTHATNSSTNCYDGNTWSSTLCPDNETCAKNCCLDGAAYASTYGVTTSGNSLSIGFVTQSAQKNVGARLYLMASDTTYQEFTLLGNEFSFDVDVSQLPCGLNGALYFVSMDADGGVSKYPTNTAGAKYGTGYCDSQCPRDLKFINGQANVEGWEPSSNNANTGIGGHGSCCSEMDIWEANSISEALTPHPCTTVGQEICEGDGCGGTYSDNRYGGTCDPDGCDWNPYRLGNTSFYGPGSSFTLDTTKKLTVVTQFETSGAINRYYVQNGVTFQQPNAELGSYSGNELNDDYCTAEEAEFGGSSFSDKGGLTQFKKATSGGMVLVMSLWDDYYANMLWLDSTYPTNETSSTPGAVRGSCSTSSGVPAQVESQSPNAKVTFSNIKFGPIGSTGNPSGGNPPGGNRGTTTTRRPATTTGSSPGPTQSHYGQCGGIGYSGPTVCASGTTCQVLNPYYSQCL
# CelEdx16 = molecular target: T2, CelEdx16 (Clostridiaceae bacterium AN-C16-KBRB, UniProt E0A3Q5); test: p-nitrophenol release, […] nm; assay type: biochemical; settings: 2 mM substrate, PBS pH 7.4, 40 °C, 12 h
# T2 sequence (E0A3Q5 1-367): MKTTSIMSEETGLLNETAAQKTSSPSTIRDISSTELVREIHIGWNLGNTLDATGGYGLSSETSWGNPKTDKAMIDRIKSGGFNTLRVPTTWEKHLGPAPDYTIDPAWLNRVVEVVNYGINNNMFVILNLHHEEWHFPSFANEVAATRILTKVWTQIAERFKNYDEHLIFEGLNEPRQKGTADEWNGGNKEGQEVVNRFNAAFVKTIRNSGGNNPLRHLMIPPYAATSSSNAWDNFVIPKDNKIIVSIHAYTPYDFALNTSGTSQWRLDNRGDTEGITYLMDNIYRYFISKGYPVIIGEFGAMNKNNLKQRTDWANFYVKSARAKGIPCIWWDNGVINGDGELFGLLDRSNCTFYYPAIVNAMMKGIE
structure (smiles),measurement,setting,value
O=[N+]([O-])c1ccc(O[C@@H]2O[C@H](CO)[C@@H](O[C@@H]3O[C@H](CO)[C@@H](O)[C@H](O)[C@H]3O)[C@H](O)[C@H]2O)cc1 [p-nitrophenyl β-D-cellobioside],"p-nitrophenol release, 405 nm; cell-free CB-biosensor",HjCel7A,pNP assay detected significant signals for CelEdx16 and HjCel7A (CBHI)
same,"p-nitrophenol release, 405 nm; cell-free CB-biosensor",CelEdx16,pNP assay detected significant signals for CelEdx16 and HjCel7A (CBHI)
